Entries after “also recorded” stand apart in the source; their conditions may differ. Values belong to the compound of their own block, whether it stands above or below them.
What was measured:
ANKTM1 = biological target: T1, ANKTM1 (Mus musculus, UniProt Q8BLA8); experiment: Intracellular calcium imaging (Fura-2) of ANKTM1-expressing CHO cells; assay type: cell-based, murine; conditions: for activation of ANKTM1-expressing cells by compound: rise in intracellular calcium, 340/380 ratio, FIG. 4B
T1 construct: pcDNA5FRT/TO containing full-length murine ANKTM1; expressed in transfected cells; host or cells: tetracycline-inducible CHO-K1/FRT cells (Flp-In)
Procedure: Nevertheless, since ANKTM1 bears similarities to TRP-like channels expressed in sensory neurons, tests were conducted to determine activation of ANKTM1 by various sensory stimuli. To this end, a series of tests were conducted using full-length murine ANKTM1 stably transfected in Chinese Hamster Ovary (CHO) cells containing FRT sites (CHO-K1/FRT) under control of a tetracycline (Tet)-inducible promoter via Flp recombinase mediated recombination. To circumvent this problem, cell lines were generated in which ANKTM1 expression could be controlled. Tetracycline-inducible CHO-K1/FRT cells lines were generated by transfecting the CHO Flp-In host cell line with pcDNA6/TR according to manufacturer's instructions (Invitrogen, San Diego, Calif.) and selected in 5 μg/mL Blasticidin. Clones stably expressing the tetracycline repressor identified by blasticidin resistance were transiently transfected with a control plasmid containing the CAT gene and selected based on high levels of CAT expression after treatment with tetracycline. The gene expression vector; pcDNA5FRT/TO containing full-length murine ANKTM1 and the Flp recombinase expression plasmid pOG44 were co-transfected into the tetracycline-inducible CHO-K1/FRT cell line and selected via Hygromycin resistance (200 μg/ml). Induction of ANKTM1 was accomplished by treating CHO cells with 1-2 μg/mL tetracycline (Tet) 5-24 hours before experiments. Calcium imaging experiments were performed essentially as described (Peier et al., 2002a, supra). Briefly, cells were plated on glass coverslips 24-48 hours prior to imaging experiments. Cells were washed in HEPES buffeted saline solution (2 mM Ca^2+), loaded with Fura-2 acetoxymethyl ester ([…]), 1.5 mM pluronic acid (Molecular Probes, Eugene, Oreg.) and incubated for 1 hour at room temperature in the dark. Coverslips were placed in laminar flow chamber (Warner Instrument Corp., Hamden, Conn.) and perfused with HEPES buffered saline (2 mM Ca^2+) flowing through small-diameter tubing at the inlet of the chamber. Perfusion rate was approximately 2 ml/min and was stopped and started via a solenoid switch (Warner Instrument Corp., Hamden, Conn. Perfusate temperature was controlled by a Peltier device and monitored via miniature thermocouple at the inlet of the chamber. Heated (up to 52° C.), chilled (down to 9° C., the limit of our system), and room temperature buffer was delivered through the same application tubing at the inlet of the chamber. Alternatively, in experiments where the compounds menthol (Sigma, St. Louis, Mo.]), capsaicin (Fluka, Buchs, Switzerland) and Icilin (Tocris Woodson,) were applied, cells were plated on 24-well tissue culture plates and loaded with Fura-2. Compounds were delivered with a 3 cc syringe during a period of ten seconds. Images of Fura-2 loaded cells with the excitation wavelength alternating between 340 nm and 380 nm were captured with a cooled […] camera. The ratio of fluorescence intensity of the two wavelengths of groups of 30-50 cells in each experiment was analyzed using MetaFluor (Universal Imaging Corp). Experiments were performed in triplicate. Unless otherwise indicated, graphs represent averaged responses of 20-40 cells from representative experiments. For direct comparison of results from different experiments, values were normalized to baseline of the ratio 340/380. For ANKTM1 and TRPM8 threshold experiments, the threshold temperature of activation of 60-100 cells each from three replicate experiments was analyzed. Threshold of activation was defined as 20% above baseline. Hanks Balanced Salt Solution (HBSS) and HEPES buffers were obtained from GibcoBRL.

TRPM8 [1] = biological target: T2, TRPM8 (Mus musculus, UniProt Q8R4D5); experiment: Intracellular calcium imaging (Fura-2) of TRPM8-expressing CHO cells; assay type: cell-based, murine
T2 construct: expressed in transfected cells; host or cells: CHO-K1/FRT cells
Procedure: CHO-K1/FRT cells were stably transfected with full-length murine ANKTM1 in the pcDNA5/FRT vector using Lipofectamine (Invitrogen) according to the manufacturer's protocol. Transfected cells were selected in growth medium containing Hygromycin (200 μg/mL). Northern blot analysis identified stable clones expressing ANKTM1 mRNA. The generation of stable murine TRPM8-expressing CHO-K1/FRT cells has been previously described (Peier et al, 2002). ANKTM1-expressing stable CHO-K1/FRT lines appeared unhealthy (membrane blebbing, cytoplasmic granulations) in culture, and after several passages, a loss of ANTKM1 expression was observed. Previous investigators have also claimed difficulty generating stable cell lines expressing human ANKTM1.
Calcium imaging experiments were performed essentially as described (Peier et al., 2002a, supra). Briefly, cells were plated on glass coverslips 24-48 hours prior to imaging experiments. […]
Images of Fura-2 loaded cells with the excitation wavelength alternating between 340 nm and 380 nm were captured with a cooled […] camera. The ratio of fluorescence intensity of the two wavelengths of groups of 30-50 cells in each experiment was analyzed using MetaFluor (Universal Imaging Corp). […] For ANKTM1 and TRPM8 threshold experiments, the threshold temperature of activation of 60-100 cells each from three replicate experiments was analyzed. […]

TRPV1 [2] = biological target: T3, TRPV1 (Rattus norvegicus, UniProt O35433); experiment: Intracellular calcium imaging (Fura-2) of TRPV1-expressing CHO cells; assay type: cell-based; conditions: rise in intracellular calcium, 340/380 ratio, FIG. 4B
T3 construct: expressed in transfected cells; host or cells: CHO cells
Procedure: Calcium imaging experiments were performed essentially as described (Peier et al., 2002a, supra). Briefly, cells were plated on glass coverslips 24-48 hours prior to imaging experiments. Cells were washed in HEPES buffeted saline solution (2 mM Ca^2+), loaded with Fura-2 acetoxymethyl ester ([…]), 1.5 mM pluronic acid (Molecular Probes, Eugene, Oreg.) and incubated for 1 hour at room temperature in the dark. Coverslips were placed in laminar flow chamber (Warner Instrument Corp., Hamden, Conn.) and perfused with HEPES buffered saline (2 mM Ca^2+) flowing through small-diameter tubing at the inlet of the chamber. Perfusion rate was approximately 2 ml/min and was stopped and started via a solenoid switch (Warner Instrument Corp., Hamden, Conn. Perfusate temperature was controlled by a Peltier device and monitored via miniature thermocouple at the inlet of the chamber. Heated (up to 52° C.), chilled (down to 9° C., the limit of our system), and room temperature buffer was delivered through the same application tubing at the inlet of the chamber. Alternatively, in experiments where the compounds menthol (Sigma, St. Louis, Mo.]), capsaicin (Fluka, Buchs, Switzerland) and Icilin (Tocris Woodson,) were applied, cells were plated on 24-well tissue culture plates and loaded with Fura-2. Compounds were delivered with a 3 cc syringe during a period of ten seconds. […]

TRPM8 [3] = biological target: T2, TRPM8; conditions: McKemy et al., 2002; cited from earlier work
TRPV1 [4] = biological target: T3, TRPV1; conditions: general statement; cited from earlier work

T2 sequence (Q8R4D5 whole entry): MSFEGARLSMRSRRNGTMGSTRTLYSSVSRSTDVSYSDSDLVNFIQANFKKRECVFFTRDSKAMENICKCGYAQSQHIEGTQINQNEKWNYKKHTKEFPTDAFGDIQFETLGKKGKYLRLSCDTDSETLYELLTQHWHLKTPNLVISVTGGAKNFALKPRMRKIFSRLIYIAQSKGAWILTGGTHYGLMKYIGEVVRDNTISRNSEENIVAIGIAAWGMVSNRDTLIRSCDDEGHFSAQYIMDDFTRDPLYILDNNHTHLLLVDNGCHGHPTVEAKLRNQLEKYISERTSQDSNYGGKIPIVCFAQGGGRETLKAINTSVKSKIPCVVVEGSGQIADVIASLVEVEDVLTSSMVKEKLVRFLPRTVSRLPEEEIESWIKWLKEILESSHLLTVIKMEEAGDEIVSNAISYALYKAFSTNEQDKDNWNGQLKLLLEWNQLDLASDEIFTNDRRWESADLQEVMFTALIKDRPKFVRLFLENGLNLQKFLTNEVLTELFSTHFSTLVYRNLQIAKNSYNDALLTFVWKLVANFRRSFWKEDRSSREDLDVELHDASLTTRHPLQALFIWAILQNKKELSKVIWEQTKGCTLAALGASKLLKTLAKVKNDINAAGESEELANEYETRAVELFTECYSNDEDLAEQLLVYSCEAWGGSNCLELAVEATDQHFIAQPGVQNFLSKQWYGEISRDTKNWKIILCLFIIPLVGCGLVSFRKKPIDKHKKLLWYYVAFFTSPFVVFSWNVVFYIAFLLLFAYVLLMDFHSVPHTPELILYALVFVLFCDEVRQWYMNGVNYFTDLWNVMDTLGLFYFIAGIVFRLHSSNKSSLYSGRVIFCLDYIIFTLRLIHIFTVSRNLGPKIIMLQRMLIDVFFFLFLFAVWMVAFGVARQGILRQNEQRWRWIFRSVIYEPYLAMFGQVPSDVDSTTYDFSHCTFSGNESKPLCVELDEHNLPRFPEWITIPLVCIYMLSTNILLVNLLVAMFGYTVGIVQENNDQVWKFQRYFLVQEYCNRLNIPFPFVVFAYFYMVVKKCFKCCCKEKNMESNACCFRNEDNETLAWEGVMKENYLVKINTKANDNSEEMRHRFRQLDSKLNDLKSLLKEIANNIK
T1 sequence (Q8BLA8 whole entry): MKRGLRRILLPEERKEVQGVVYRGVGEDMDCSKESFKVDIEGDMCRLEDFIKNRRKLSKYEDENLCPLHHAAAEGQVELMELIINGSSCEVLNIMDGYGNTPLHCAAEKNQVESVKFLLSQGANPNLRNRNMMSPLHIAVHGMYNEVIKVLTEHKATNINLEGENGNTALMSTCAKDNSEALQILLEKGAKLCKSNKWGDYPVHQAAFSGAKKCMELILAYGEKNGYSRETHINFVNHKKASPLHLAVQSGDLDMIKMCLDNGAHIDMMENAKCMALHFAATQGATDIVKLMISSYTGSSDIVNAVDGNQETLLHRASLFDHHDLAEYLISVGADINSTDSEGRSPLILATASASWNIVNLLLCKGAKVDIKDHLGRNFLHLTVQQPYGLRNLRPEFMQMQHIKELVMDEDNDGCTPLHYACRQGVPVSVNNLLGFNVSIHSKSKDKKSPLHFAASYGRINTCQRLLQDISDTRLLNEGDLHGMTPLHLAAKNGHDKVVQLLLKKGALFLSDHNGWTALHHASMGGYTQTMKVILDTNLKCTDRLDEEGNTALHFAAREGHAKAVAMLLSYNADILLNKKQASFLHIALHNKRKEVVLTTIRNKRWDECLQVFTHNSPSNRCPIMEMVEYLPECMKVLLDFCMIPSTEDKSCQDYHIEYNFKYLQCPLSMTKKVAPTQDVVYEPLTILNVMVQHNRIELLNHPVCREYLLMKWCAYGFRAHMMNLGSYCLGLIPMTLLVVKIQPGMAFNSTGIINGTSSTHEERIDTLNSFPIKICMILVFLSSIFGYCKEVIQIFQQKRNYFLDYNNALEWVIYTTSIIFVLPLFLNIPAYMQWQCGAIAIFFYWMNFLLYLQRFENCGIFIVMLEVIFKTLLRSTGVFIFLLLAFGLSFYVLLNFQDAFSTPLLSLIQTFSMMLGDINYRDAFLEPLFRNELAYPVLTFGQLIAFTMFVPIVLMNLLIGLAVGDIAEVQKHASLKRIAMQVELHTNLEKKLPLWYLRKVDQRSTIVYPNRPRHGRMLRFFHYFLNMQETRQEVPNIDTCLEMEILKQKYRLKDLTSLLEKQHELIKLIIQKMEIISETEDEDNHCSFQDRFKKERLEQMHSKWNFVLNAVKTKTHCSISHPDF
T3 sequence (O35433 whole entry): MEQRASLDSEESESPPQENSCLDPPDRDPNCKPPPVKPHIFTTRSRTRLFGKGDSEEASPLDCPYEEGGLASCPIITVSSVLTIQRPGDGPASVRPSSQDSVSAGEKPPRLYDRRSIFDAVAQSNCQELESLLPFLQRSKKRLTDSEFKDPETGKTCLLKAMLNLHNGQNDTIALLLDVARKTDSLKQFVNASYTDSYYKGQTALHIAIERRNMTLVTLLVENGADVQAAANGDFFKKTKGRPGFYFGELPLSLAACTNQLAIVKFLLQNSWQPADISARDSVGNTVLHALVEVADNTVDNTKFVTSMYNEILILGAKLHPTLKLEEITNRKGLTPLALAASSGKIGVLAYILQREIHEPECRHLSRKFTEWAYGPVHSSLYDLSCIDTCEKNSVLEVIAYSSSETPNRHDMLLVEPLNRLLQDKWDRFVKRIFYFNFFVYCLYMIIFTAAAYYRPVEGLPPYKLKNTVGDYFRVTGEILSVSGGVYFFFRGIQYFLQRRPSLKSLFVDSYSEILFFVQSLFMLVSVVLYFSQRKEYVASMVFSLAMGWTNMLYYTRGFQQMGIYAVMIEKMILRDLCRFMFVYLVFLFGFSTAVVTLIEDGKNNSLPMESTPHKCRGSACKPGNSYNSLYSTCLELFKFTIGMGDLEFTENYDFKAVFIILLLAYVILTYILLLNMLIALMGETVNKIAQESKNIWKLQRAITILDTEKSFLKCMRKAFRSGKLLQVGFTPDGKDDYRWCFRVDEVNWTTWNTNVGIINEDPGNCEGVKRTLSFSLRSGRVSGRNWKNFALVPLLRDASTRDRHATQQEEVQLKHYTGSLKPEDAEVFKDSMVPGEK

delay of response (ANKTM1; ANKTM1 cells): 15 to 60 s
concentration required for ANKTM1 activation compared to TRPM8 (ANKTM1; comparison with TRPM8-expressing cells): Higher concentrations
activation of ANKTM1-expressing cells by compound (ANKTM1): activated
delay of response (TRPM8 [1]; TRPM8 cells): 15 s
activation of TRPV1-expressing cells by compound (TRPV1 [2]): did not activate
Structure (SMILES): O=C1NC(c2cccc([N+](=O)[O-])c2)=CCN1c1ccccc1O [Icilin]
activator of TRPM8 (TRPM8 [3]): potent activator

Structure (SMILES): CC1CCC(C(C)C)C(O)C1 (stereo not drawn) [Menthol, menthol]
activation of ANKTM1-expressing cells by compound (ANKTM1): failed to activate

activation of ANKTM1-expressing cells by compound (ANKTM1): did not activate
activation of TRPM8-expressing cells by compound (TRPM8 [1]; rise in intracellular calcium, 340/380 ratio, FIG. 4B): did not activate
Structure (SMILES): COc1cc(CNC(=O)CCCC/C=C/C(C)C)ccc1O [capsaicin]
activator of TRPV1 (TRPV1 [4]): potent activator

ANKTM1-containing cells with complete block of the cold response (ANKTM1; 1 μm ruthenium red, multiple experiments): 90%
Structure (SMILES): N.N.N.N.N.N.N.N.N.N.N.N.N.N.[Cl-].[Cl-].[Cl-].[Cl-].[Cl-].[Cl-].[O-2].[O-2].[Ru+3].[Ru+3].[Ru+4] [ruthenium red]
block of cold responses by ANKTM1 (ANKTM1; 5 μM ruthenium red, pre-incubation or present during cooling, ANKTM1-expressing CHO cells, not entirely recovered after ten minute washout): eliminates cold-evoked responses; also recorded: completely blocked
